“And” between values parts separate entries of the source, which are not always exact repeats. Equal entries are not always repeated. Inconclusive results and toxic doses are left out.

For 20 compounds, T/C results are on record in PubChem BioAssay AID192 (DTP/NCI, 2004).

The assay has as its system BDF1 mice, B16 melanoma ip, median survival T/C. The assay is described as follows: NCI In Vivo Anticancer Drug Screen. Data for tumor model B16 Melanoma (intraperitoneal) in B6D2F1 (BDF1) mice. Conditions: endpoint: median survival time, higher = longer survival. The essentials:
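Compounds were tested in mice carrying transplantable tumors. Survival or tumor size was recorded, and each value is the treated-group measurement (T) divided by that of the vehicle-treated control group (C).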

[1] abbreviates: dose: 25.0 mg/kg/injection, schedule: Q01DX009 (ip), vehicle: saline with Tween-80.
The mark [2] stands for this setting: dose: 25.0 mg/kg/injection, schedule: Q01DX009 (ip), vehicle: saline.
Setting [3] is: dose: 25.0 mg/kg/injection, schedule: Q01DX009 (ip), vehicle: Klucel (hydroxypropylcellulose) (HPC).
The mark [4] stands for this setting: dose: 100.0 mg/kg/injection, schedule: Q01DX009 (ip), vehicle: Klucel (hydroxypropylcellulose) (HPC).
Setting [5] is: dose: 12.5 mg/kg/injection, schedule: Q01DX009 (ip), vehicle: Klucel (hydroxypropylcellulose) (HPC).
Setting [6] is: dose: 50.0 mg/kg/injection, schedule: Q01DX009 (ip), vehicle: Klucel (hydroxypropylcellulose) (HPC).
Setting [7] is: dose: 50.0 mg/kg/injection, schedule: Q01DX009 (ip), vehicle: saline with Tween-80.
Where [8] appears, read: dose: 100.0 mg/kg/injection, schedule: Q01DX009 (ip), vehicle: saline with Tween-80.
Where [9] appears, read: dose: 50.0 mg/kg/injection, schedule: Q01DX009 (ip), vehicle: saline.
The mark [10] stands for this setting: dose: 200.0 mg/kg/injection, schedule: Q01DX009 (ip), vehicle: Klucel (hydroxypropylcellulose) (HPC).
[11] abbreviates: dose: 6.25 mg/kg/injection, schedule: Q01DX009 (ip), vehicle: Klucel (hydroxypropylcellulose) (HPC).
[12] abbreviates: dose: 400.0 mg/kg/injection, schedule: Q01DX009 (ip), vehicle: Klucel (hydroxypropylcellulose) (HPC).
[13] abbreviates: dose: 100.0 mg/kg/injection, schedule: Q01DX009 (ip), vehicle: saline.

Turning to `CN(N=O)C(=O)Nc1c[nH]c(=O)[nH]c1=O`, the T/C runs as follows: (dose: 0.13 mg/kg/injection, schedule: Q01DX009 (ip), vehicle: saline with Tween-80) 113 % of control; (dose: 0.5 mg/kg/injection, schedule: Q01DX009 (ip), vehicle: saline with Tween-80) 105 % of control; (dose: 1.0 mg/kg/injection, schedule: Q01DX009 (ip), vehicle: saline with Tween-80) 105 % of control; (dose: 2.0 mg/kg/injection, schedule: Q01DX009 (ip), vehicle: saline with Tween-80) 115 % of control; (dose: 8.0 mg/kg/injection, schedule: Q01DX009 (ip), vehicle: saline with Tween-80) 170 % of control; (dose: 16.0 mg/kg/injection, schedule: Q01DX009 (ip), vehicle: saline with Tween-80) 182 % of control. For the same compound, the T/C is, setting by setting: (dose: 16.5 mg/kg/injection, schedule: Q01DX009 (ip), vehicle: saline with Tween-80) 193 % of control; under setting [1], 200 % of control; under setting [2], 176 % of control; (dose: 37.5 mg/kg/injection, schedule: Q01DX009 (ip), vehicle: saline with Tween-80) 200 % of control.
Turning to `O=[N+]([O-])c1ccc(N2CCC(CCCC3CCN(c4ccc([N+](=O)[O-])cc4[N+](=O)[O-])CC3)CC2)c([N+](=O)[O-])c1`, the T/C reads like this: under setting [3], 106 % of control; under setting [4], 112 % of control.
For `O=C1C=CC(=O)O1` (tested in a mixture with another compound), the T/C runs as follows: under setting [5], 124 % of control; (dose: 12.5 mg/kg/injection, schedule: Q04DX003 (ip), vehicle: saline) 111 % of control; (dose: 18.75 mg/kg/injection, schedule: Q04DX003 (ip), vehicle: Klucel (hydroxypropylcellulose) (HPC)) 97 % of control; (dose: 25.0 mg/kg/injection, schedule: Q04DX003 (ip), vehicle: saline) 96 % of control and 121 % of control; (dose: 37.5 mg/kg/injection, schedule: Q04DX003 (ip), vehicle: Klucel (hydroxypropylcellulose) (HPC)) 150 % of control; under setting [6], 159 % of control. In addition, the T/C is 120 % of control and 121 % of control (dose: 50.0 mg/kg/injection, schedule: Q04DX003 (ip), vehicle: saline); 161 % of control (dose: 75.0 mg/kg/injection, schedule: Q04DX003 (ip), vehicle: Klucel (hydroxypropylcellulose) (HPC)); 150 % of control under setting [4]; 108 % of control and 208 % of control (dose: 150.0 mg/kg/injection, schedule: Q04DX003 (ip), vehicle: Klucel (hydroxypropylcellulose) (HPC)); 104 % of control (dose: 200.0 mg/kg/injection, schedule: Q01DX009 (ip), vehicle: other); 152 % of control and 184 % of control (dose: 300.0 mg/kg/injection, schedule: Q04DX003 (ip), vehicle: Klucel (hydroxypropylcellulose) (HPC)). In addition, the T/C (dose: 400.0 mg/kg/injection, schedule: Q04DX003 (ip), vehicle: saline) is 101 % of control.
`CCCC(=O)Oc1ccc(/C=N/NC(N)=S)nc1`: the T/C runs as follows: (dose: 12.5 mg/kg/injection, schedule: Q01DX009 (ip), vehicle: saline with Tween-80) 105 % of control; under setting [1], 105 % of control; under setting [7], 106 % of control and 112 % of control; under setting [8], 116 % of control; (dose: 200.0 mg/kg/injection, schedule: Q01DX009 (ip), vehicle: saline with Tween-80) 110 % of control.
With `CC(Br)C(=O)NCC(=O)O` (centres undefined), the T/C (dose: 12.5 mg/kg/injection, schedule: Q01DX009 (ip), vehicle: saline) is 101 % of control; the T/C under setting [2] is 90 % of control; the T/C under setting [7] was 95 % of control; the T/C under setting [9] is 101 % of control.
For the compound `C=CCN(CC=C)P(=O)(N1CC1C)N1CC1C` (centres undefined), the T/C runs as follows: (dose: 0.31 mg/kg/injection, schedule: Q01DX009 (ip), vehicle: saline) 109 % of control; (dose: 0.63 mg/kg/injection, schedule: Q01DX009 (ip), vehicle: saline) 112 % of control; (dose: 1.25 mg/kg/injection, schedule: Q01DX009 (ip), vehicle: saline) 122 % of control; (dose: 2.5 mg/kg/injection, schedule: Q01DX009 (ip), vehicle: saline) 99 % of control.
As to `CC(=O)N(C(C)=O)c1ccc(N=Nc2ccccc2C)cc1C`, the T/C reads like this: under setting [5], 94 % of control; under setting [3], 117 % of control; under setting [6], 100 % of control; under setting [4], 100 % of control; under setting [10], 87 % of control.
For the compound `NCCc1ccc(S(=O)(=O)O)cc1[N+](=O)[O-]`, the T/C reads like this: (dose: 50.0 mg/kg/injection, schedule: Q01DX009 (ip), vehicle: carboxymethylcellulose (CMC)) 96 % of control; (dose: 100.0 mg/kg/injection, schedule: Q01DX009 (ip), vehicle: carboxymethylcellulose (CMC)) 86 % of control; (dose: 200.0 mg/kg/injection, schedule: Q01DX009 (ip), vehicle: carboxymethylcellulose (CMC)) 89 % of control.
Regarding `CCc1cccc[n+]1[O-]`, the T/C was 96 % of control (dose: 400.0 mg/kg/injection, schedule: Q01DX009 (ip), vehicle: saline with Tween-80) and 96 % of control (dose: 600.0 mg/kg/injection, schedule: Q01DX009 (ip), vehicle: saline with Tween-80).
Take `N#Cc1ccccc1N=NNc1ccccc1C#N`: the T/C (dose: 0.78 mg/kg/injection, schedule: Q01DX009 (ip), vehicle: Klucel (hydroxypropylcellulose) (HPC)) was 90 % of control; the T/C (dose: 1.56 mg/kg/injection, schedule: Q01DX009 (ip), vehicle: Klucel (hydroxypropylcellulose) (HPC)) is 102 % of control; the T/C (dose: 3.12 mg/kg/injection, schedule: Q01DX009 (ip), vehicle: Klucel (hydroxypropylcellulose) (HPC)) was 96 % of control; the T/C under setting [5] is 86 % of control.
With `CC(C)C(=O)NNCc1ccccc1`, the T/C by setting is: under setting [11], 95 % of control; under setting [5], 97 % of control; under setting [3], 95 % of control; under setting [6], 90 % of control.
Regarding `O=NN(CCBr)C(=O)NCCBr`, the T/C reads like this: (dose: 50.0 mg/kg/injection, schedule: Q01DX009 (ip), vehicle: gum acacia) 107 % of control; (dose: 66.0 mg/kg/injection, schedule: Q01DX009 (ip), vehicle: gum acacia) 109 % of control; (dose: 100.0 mg/kg/injection, schedule: Q01DX009 (ip), vehicle: gum acacia) 116 % of control.
For `O=C1C(NC(=O)C2CCCCC2)=C(N2CC2)C(=O)C(NC(=O)C2CCCCC2)=C1N1CC1`, the T/C by setting is: under setting [3], 109 % of control; under setting [6], 102 % of control.
Take `CC(=O)OC1CCC2(C)C(CCC3C4CC=C(C(C)=O)C4(C)CCC32)C1` (centres undefined): the T/C under setting [4] is 86 % of control, the T/C under setting [10] was 98 % of control and the T/C under setting [12] was 90 % of control.
Take `CCN(CC)Cc1ccccn1`: the T/C by setting is: under setting [2], 100 % of control; under setting [9], 97 % of control; under setting [13], 100 % of control.
As to `CC(C)(C)OC(=O)NC(COCc1ccccc1)C(=O)O` (centres undefined), the T/C is, setting by setting: under setting [7], 90 % of control; under setting [8], 90 % of control.
`Cc1cnc(/C=N\NC(N)=S)c2cccc(N)c12`: the T/C reads like this: (dose: 3.12 mg/kg/injection, schedule: Q01DX009 (ip), vehicle: saline with Tween-80) 100 % of control; (dose: 3.13 mg/kg/injection, schedule: Q01DX009 (ip), vehicle: Klucel (hydroxypropylcellulose) (HPC)) 102 % of control; (dose: 3.13 mg/kg/injection, schedule: Q01DX009 (ip), vehicle: saline with Tween-80) 114 % of control; under setting [11], 114 % of control; (dose: 6.25 mg/kg/injection, schedule: Q01DX009 (ip), vehicle: saline with Tween-80) 103 % of control and 124 % of control; under setting [5], 115 % of control.
With `O=NN1CCNC1=O`, the T/C was 98 % of control (dose: 1.5 mg/kg/injection, schedule: Q01DX009 (ip), vehicle: Klucel (hydroxypropylcellulose) (HPC)); 110 % of control (dose: 3.0 mg/kg/injection, schedule: Q01DX009 (ip), vehicle: Klucel (hydroxypropylcellulose) (HPC)); 101 % of control (dose: 6.0 mg/kg/injection, schedule: Q01DX009 (ip), vehicle: Klucel (hydroxypropylcellulose) (HPC)).
As to `COc1ccc(CCN2CSC(=S)N(CCc3ccc(OC)c(OC)c3)C2)cc1OC`, the T/C under setting [4] is 106 % of control, the T/C under setting [10] is 95 % of control and the T/C under setting [12] is 95 % of control.
As to `CC(=O)/C(N=O)=C(/C)O`, the T/C reads like this: under setting [9], 110 % of control; under setting [13], 105 % of control; (dose: 200.0 mg/kg/injection, schedule: Q01DX009 (ip), vehicle: saline) 97 % of control.
